Patent US20030170791A1, “Gene family encoding membrane steroid receptors” (priority 2001, published 2003)

Tests used:
[1] = molecular target: T1, seatrout recombinant mPR produced in E. coli (Cynoscion nebulosus, UniProt Q801D8); experiment: Steroid binding to recombinant seatrout mPR produced in E. coli (single-point, competition, saturation, kinetics); settings: for specific binding of 3H-steroid (steroid specificity): single-point assay, 10 nM 3H-steroid with or without 100-fold excess non-radioactive steroid
T1 construct: The coding region of the steroid membrane receptor was amplified by PCR from a full-length cDNA plasmid clone; made in house; host or cells: E. coli BL21 (DE3), pET vector
T1 sequence (Q801D8 1-352): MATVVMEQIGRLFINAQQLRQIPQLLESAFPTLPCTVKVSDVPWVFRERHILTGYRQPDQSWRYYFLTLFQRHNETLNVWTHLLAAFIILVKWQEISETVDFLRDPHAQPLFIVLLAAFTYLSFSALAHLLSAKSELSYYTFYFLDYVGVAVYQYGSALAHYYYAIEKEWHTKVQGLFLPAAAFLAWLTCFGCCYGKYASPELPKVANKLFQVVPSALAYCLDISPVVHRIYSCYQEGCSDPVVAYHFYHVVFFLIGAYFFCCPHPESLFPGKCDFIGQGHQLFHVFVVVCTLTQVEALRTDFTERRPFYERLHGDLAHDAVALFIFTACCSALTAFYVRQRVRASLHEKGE
Protocol: The cloned membrane progestin receptor was expressed in E. coli and the binding of the recombinant protein to steroids was analyzed by a radiolabeled receptor assay.
(§1) The PCR products were purified by electrophoresis using low-melting gel and a QIAquick Gel Extraction Kit. The purified PCR product was ligated into a pET expression vector. The pET vector was transformed into BL21 (DE3) E. coli cells. The positive clones were purified and sequenced. The plasmid without an insert was used as control. Recombinant protein was induced with IPTG at 25° C. and soluble recombinant proteins were extracted and analyzed.
Initially, steroid specificity of the recombinant receptor was determined from single-point competition assays using 10 nM ^3H-steroid in the absence (total binding) or presence of 100-fold excess non-radioactive steroid (nonspecific binding, FIG. 8).
Full competition curves were generated with 10 nM 3H-progesterone (total binding) or in combination with 1 nM-10 μM of various steroids (FIG. 8).
(§2) Saturation kinetics of H^3-progesterone binding to the recombinant receptor were conducted with 7 progesterone concentrations (range 0.5-40 nM) in the absence (total binding) or presence of 1 μM excess cold steroid (nonspecific binding, FIG. 11).

[2] = molecular target: T2, recombinant human kidney mSR (Homo sapiens, UniProt Q9NXK6); experiment: 3H-progesterone binding to recombinant human kidney mSR (saturation, kinetics, competition); settings: for displacement of 3H-progesterone: competition curves, 10 nM 3H-progesterone, 1 nM-10 μM competitor
T2 construct: The coding region of the steroid membrane receptor was amplified by PCR from a full-length cDNA plasmid clone; made in house; host or cells: E. coli
T2 sequence (Q9NXK6 1-330): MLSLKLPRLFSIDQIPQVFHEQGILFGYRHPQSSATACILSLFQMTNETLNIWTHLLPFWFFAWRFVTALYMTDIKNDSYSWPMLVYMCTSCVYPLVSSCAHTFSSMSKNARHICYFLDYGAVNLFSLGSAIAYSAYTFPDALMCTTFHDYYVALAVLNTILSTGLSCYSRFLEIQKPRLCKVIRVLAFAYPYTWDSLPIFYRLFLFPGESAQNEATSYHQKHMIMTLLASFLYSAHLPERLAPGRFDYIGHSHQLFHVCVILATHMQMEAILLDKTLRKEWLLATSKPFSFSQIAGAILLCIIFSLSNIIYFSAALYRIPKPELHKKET
Protocol: (§3) Receptor Binding of Human Membrane Steroid Receptors. Mouse testicular and human testicular and kidney mSR were expressed in E. coli and binding of the recombinant proteins to steroids was studied. The membrane steroid receptor from human brain was not expressed since the clone only contains part of the coding region.
Binding Characters of Human Kidney Membrane Steroid Receptor. Saturation kinetics of ^3H-progesterone binding to the recombinant human kidney mSR was conducted with 7 progesterone concentrations (range 0.5-40 nM) in the absence (total binding) or presence of 1 μM excess cold steroid (nonspecific binding, FIG. 23).
The specific binding dissociated quickly with a t1/2 dissociation of 2 minutes (FIG. 24).
Full competition curves were generated with 10 nM 3 H-progesterone (total binding) or in combination with 1 nM-10 μM of various steroids (FIG. 25, 26). […] This binding was very specific for 21 carbon steroids lacking a functional group at the 11 position.

[3] = system: E. coli control proteins; experiment: Steroid binding to E. coli control proteins (vector without insert); settings: for binding to the control proteins: single-point assay, 10 nM 3H-steroid
Protocol: as §1
Initially, steroid specificity of the recombinant receptor was determined from single-point competition assays using 10 nM ^3H-steroid in the absence (total binding) or presence of 100-fold excess non-radioactive steroid (nonspecific binding, FIG. 8). […] No binding of P4 and 17-P to the control proteins was observed (FIG. 7).
as §2

[4] = molecular target: T3, solubilized seatrout ovarian membrane progestin (20β-S) receptor (Cynoscion nebulosus, UniProt Q801D8); experiment: [3H]20β-S binding to solubilized seatrout ovarian membrane progestin receptor (DCC assay; saturation, Scatchard, association/dissociation); set-up: species or system spotted seatrout (Cynoscion nebulosus)
T3 sequence (Q801D8 1-352): T1 sequence (Q801D8 1-352)
Protocol: 20β-S receptor binding in solubilized membrane preparations was assayed using dextran-coated charcoal (DCC) to separate bound from steroid. The incubation conditions were similar to those used for the intact membrane preparation with the exception that 100-fold excess unlabeled 20β-S was used to determine non-specific binding. The incubation was terminated by adding 1-ml ice-cold DCC suspension (0.1 g dextran T-70 and 1 g charcoal per 100 ml HA buffer). The tubes were vortexed and the reaction mixture was incubated on ice for 5 minutes to absorb free steroid followed by centrifugation at 3200 g for 10 minutes at 4° C. The radioactivities of the filters or supernatants were measured using Beckman LS 6000SC Scintillation Counter (Beckman Instruments Inc., Houston, Tex.).
Saturation kinetics of [^3H]20β-S binding to the solubilized membrane receptor was conducted with six radiolabeled 20β-S concentrations (range 0.25-10 nM) in the absence (total binding) or presence of 100-fold excess cold steroid (non-specific binding). The dissociation constant (Kd) and receptor concentration (Bmax) were calculated from Scatchard plots. One point assays were conducted with 5 nM radiolabeled 20β-S with or without 100-fold excess unlabeled steroid.
The rate of 20β-S association to the solubilized receptor was determined by measuring the specific binding of [^3H]20β-S after-incubation periods of 30 seconds to 24 hours. The rate of dissociation was determined by first allowing samples to equilibrate with tracer for 30 minutes before the addition of 100-fold excess unlabeled 20β-S and incubation for periods of 30 seconds to 24 hours.

[5] = molecular target: T4, recombinant human testicular mSR (Homo sapiens, UniProt Q86WK9); experiment: Saturation/Scatchard analysis of 3H-progesterone binding to recombinant human testicular mSR; settings: Scatchard analysis
T4 construct: The coding region of the steroid membrane receptor was amplified by PCR from a full-length cDNA plasmid clone; made in house; host or cells: E. coli
T4 sequence (Q86WK9 1-346): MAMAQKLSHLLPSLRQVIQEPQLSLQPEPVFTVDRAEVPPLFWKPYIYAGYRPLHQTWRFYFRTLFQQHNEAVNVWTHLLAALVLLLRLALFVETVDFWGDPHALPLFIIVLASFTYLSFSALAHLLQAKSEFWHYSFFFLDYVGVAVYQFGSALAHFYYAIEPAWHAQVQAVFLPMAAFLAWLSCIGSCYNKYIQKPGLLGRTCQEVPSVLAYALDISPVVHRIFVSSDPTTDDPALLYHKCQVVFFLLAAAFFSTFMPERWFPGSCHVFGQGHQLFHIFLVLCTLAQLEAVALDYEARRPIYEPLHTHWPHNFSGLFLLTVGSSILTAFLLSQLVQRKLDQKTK
Protocol: as §3
Binding Characteristics of Human Testicular Membrane Steroid Receptor. Saturation kinetics of ^3H-progesterone binding to the recombinant human testicular mSR was conducted with 7 progesterone concentrations (range 0.5-40 nM) in the absence (total binding) or presence of 1 μM excess cold steroid (nonspecific binding, FIG. 22).

[6] = molecular target: T5, recombinant mouse testicular mSR (Mus musculus, UniProt Q80ZE5); experiment: Saturation/Scatchard analysis of 3H-progesterone binding to recombinant mouse testicular mSR; settings: Scatchard analysis
T5 construct: The coding region of the steroid membrane receptor was amplified by PCR from a full-length cDNA plasmid clone; made in house; host or cells: E. coli
T5 sequence (Q80ZE5 1-354): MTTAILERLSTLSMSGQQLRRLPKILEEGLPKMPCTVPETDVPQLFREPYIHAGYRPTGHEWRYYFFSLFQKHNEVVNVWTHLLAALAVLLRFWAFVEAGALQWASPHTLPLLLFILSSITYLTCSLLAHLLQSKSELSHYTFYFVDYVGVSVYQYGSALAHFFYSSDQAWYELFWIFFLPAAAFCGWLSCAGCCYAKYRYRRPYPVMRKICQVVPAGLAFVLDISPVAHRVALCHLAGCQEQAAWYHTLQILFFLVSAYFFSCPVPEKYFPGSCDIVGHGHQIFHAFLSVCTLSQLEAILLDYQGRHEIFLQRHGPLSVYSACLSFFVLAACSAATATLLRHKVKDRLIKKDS
Protocol: as §3
Binding Characteristics of Mouse Testicular Membrane Steroid Receptor. Saturation kinetics of ^3H-progesterone binding to the recombinant mouse testicular mSR was conducted with 7 progesterone concentrations (range 0.5-40 nM) in the absence (total binding) or presence of excess cold steroid (nonspecific binding, FIG. 21).

C[C@]12CCC(=O)C[C@@H]1CC[C@@H]1[C@@H]2CC[C@]2(C)[C@@H](O)CC[C@@H]12 [5α-dihydrotestosterone]
specific binding of 3H-steroid (steroid specificity) [1]: no specific binding

C[C@]12CC(=O)[C@H]3[C@@H](CCC4=CC(=O)CC[C@@]43C)[C@@H]1CC[C@@H]2O [11-ketotestosterone]
specific binding of 3H-steroid (steroid specificity) [1]: no specific binding

C[C@@H](O)[C@@]1(O)CC[C@H]2[C@@H]3CCC4=CC(=O)CC[C@]4(C)[C@H]3CC[C@@]21C [17,20β-P, 17,20β-dihydroxy-4-pregnen-3-one]
specific binding of 3H-steroid (steroid specificity) [1]: did not show any specific binding

CC(=O)[C@@]1(O)CC[C@H]2[C@@H]3CCC4=CC(=O)CC[C@]4(C)[C@H]3CC[C@@]21C [17-P, 17-hydroxyprogesterone]
displacement of 3H-progesterone ([1]; competition curves, 10 nM 3H-progesterone, 1 nM-10 μM competitor): equipotent with P4
specific binding of 3H-steroid (steroid specificity) [1]: high affinity
displacement of 3H-progesterone [2]: equipotent with P4
binding to the control proteins [3]: No binding

CC12CCC(=O)C=C1CCC1C2CCC2(C)C1CCC2(O)C(O)CO (stereo not drawn) [20β-S, 17,20β,21-trihydroxy-4-pregnen-3-one]
Bmax ([4]; Scatchard analysis, [3H]20β-S): 0.204 pmol g^−1 ovary
time to full displacement ([4]; after 100-fold excess unlabeled 20β-S): ≤ 20 min
time to reach saturation of binding ([4]; equilibrium study): ≤ 15 min
concentration at which saturation was achieved ([4]; saturation analysis): approximately 10 nM
specific binding of 3H-steroid (steroid specificity) [1]: did not show any specific binding

CC[C@H](C)[C@@H]1NC(=O)[C@H](Cc2ccc(O)cc2)NC(=O)[C@@H](N)CSSC[C@@H](C(=O)N2CCC[C@H]2C(=O)N[C@@H](CC(C)C)C(=O)NCC(N)=O)NC(=O)[C@H](CC(N)=O)NC(=O)[C@H](CCC(N)=O)NC1=O [oxytocin]
displacement of 3H-progesterone [2]: no displacement

CC(=O)[C@H]1CC[C@H]2[C@@H]3CCC4=CC(=O)CC[C@]4(C)[C@H]3CC[C@]12C [progesterone]
Bmax [5]: 0.47 nM
Kd ([5]; 3H-progesterone 0.5-40 nM): 37 nM
Kd [1]: 30 nM
Bmax ([1]; Scatchard analysis, 3H-progesterone): 0.49 nM
specific binding of 3H-steroid (steroid specificity) [1]: Highest specific binding
Bmax [6]: 0.304 nM
Kd ([6]; 3H-progesterone 0.5-40 nM): 29 nM
Bmax ([2]; Scatchard analysis): 0.54 nM
Kd ([2]; Scatchard analysis, 3H-progesterone 0.5-40 nM): 28 nM
specific binding to E. coli control proteins ([3]; saturation analysis, 3H-progesterone): no specific binding
binding to the control proteins [3]: No binding

C[C@]12CC[C@H]3[C@@H](CCC4=CC(=O)CC[C@@]43C)[C@@H]1CC[C@@H]2O [testosterone]
specific binding of 3H-steroid (steroid specificity) [1]: no specific binding

Vitamin D
displacement of 3H-progesterone [2]: no displacement
